Each block holds one molecule with its values, some of them ahead of it. *1 amine or outer side, *2 acyl side, *3 side chain or, on linkers, in order; H or OH if unused. Where a SMILES comes first, the peptide text is derived from it. [ ]: non-standard residue; d: D form. The star is where a group is joined. Cmp = 4-carboxymethyl-piperidine, O=C(CC1CCN([*:1])CC1)[*:2]; Octanoyl = CCCCCCCC(=O)*; Dap = NC[C@H](N)C(=O)O; Octyl = CCCCCCCC*
Experiments:
[1] = system: normal chow-fed C57BL/6J male mice; test: Effect on food intake in normal mice (HM-2 automated monitoring); assay type: in vivo, mouse; details: for Accumulated FI at 6h: 300 nmol/kg s.c. once, light phase 0-6 h, modified protocol (food access re-opened 2 h after dosing); for Effects on FI during the dark period: modified protocol, 0-24 h monitoring (FIG. 2B)
Procedure: Normal chow-fed C57BL/6J male mice were used. The mice were kept in an automated food- and water-intake monitoring system (HM-2) which allows automated on-line measurements of accumulated food intake (FI) and other parameters. Food intake was monitored by the HM-2 system up to 24 h after dosing. The mice were kept 6 per cage, and each dosing group consisted of 6 animals.
In the initial experimental set-up with ghrelin as test compound, animals were allowed free access to food directly after treatment, and the resulting data for food intake are shown in FIG. 1A herein (vide infra).
In order to further investigate the “duration of action” of ghrelin and the other test compounds a new protocol was defined. In the modified protocol the gate to the food chambers was closed prior to dosing with vehicle or test compound and was re-opened 2 hours thereafter. The resulting data for food intake following dosing with ghrelin or vehicle are summarized in FIG. 1B (vide infra), while the corresponding data for food intake following dosing with each of the of the other four test compounds. (Compound 16, 22, 23 or 43 of the invention) or with vehicle are summarized in FIG. 2A (data for monitoring up to 6 hours after dosing) and FIG. 2B (data for monitoring up to 24 hours after dosing).

[2] = molecular target: human growth hormone secretagogue receptor type 1a (human, UniProt Q92847 1-366); test: cell-based or functional assay
Sequence of human growth hormone secretagogue receptor type 1a (Q92847 whole entry): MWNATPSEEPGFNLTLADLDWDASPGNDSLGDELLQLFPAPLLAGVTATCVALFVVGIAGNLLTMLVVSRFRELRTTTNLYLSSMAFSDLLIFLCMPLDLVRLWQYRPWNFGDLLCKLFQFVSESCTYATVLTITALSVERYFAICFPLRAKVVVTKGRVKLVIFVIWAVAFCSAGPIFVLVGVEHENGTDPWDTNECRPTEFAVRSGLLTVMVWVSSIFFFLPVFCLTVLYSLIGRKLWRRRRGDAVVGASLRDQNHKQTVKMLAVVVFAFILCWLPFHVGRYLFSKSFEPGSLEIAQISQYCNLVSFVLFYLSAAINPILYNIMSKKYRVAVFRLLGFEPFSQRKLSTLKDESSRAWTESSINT

Molecule: CCCCCCCC(=O)OC[C@H](NC(=O)[C@H](CO)NC(=O)CN)C(=O)N[C@@H](Cc1ccccc1)C(=O)N[C@@H](CC(C)C)C(=O)N[C@@H](CO)C(=O)N1CCC[C@H]1C(=O)N[C@@H](CCC(=O)O)C(=O)N[C@@H](Cc1c[nH]cn1)C(=O)N[C@@H](CCC(N)=O)C(=O)N[C@@H](CCCNC(=N)N)C(=O)N[C@H](C(=O)N[C@@H](CCC(N)=O)C(=O)N[C@@H](CCC(N)=O)C(=O)N[C@@H](CCCNC(=N)N)C(=O)N[C@@H](CCCCN)C(=O)N[C@@H](CCC(=O)O)C(=O)N[C@@H](CO)C(=O)N[C@@H](CCCCN)C(=O)N[C@@H](CCCCN)C(=O)N1CCC[C@H]1C(=O)N1CCC[C@H]1C(=O)N[C@@H](C)C(=O)N[C@@H](CCCCN)C(=O)N[C@@H](CC(C)C)C(=O)N[C@@H](CCC(N)=O)C(=O)N1CCC[C@H]1C(=O)N[C@@H](CCCNC(=N)N)C(=O)O)C(C)C [Compound 1, reference compound]
Effect on food intake (FI) ([1]; 300 nmol/kg s.c., access to food delayed for 2 h after administration (FIG. 1B)): essentially lost
Food intake (FI) compared to PBS treated controls ([1]; 300 nmol/kg s.c., free access to food immediately after dosing (FIG. 1A)): increased FI

Molecule: CCCCCCCCCCCCCCCC(=O)NCCCC[C@H](NC(=O)[C@H](CO)NC(=O)[C@H](CCC(=O)O)NC(=O)[C@H](CCCCN)NC(=O)[C@H](CCCNC(=N)N)NC(=O)[C@H](CCC(N)=O)NC(=O)[C@H](CCC(N)=O)NC(=O)[C@@H](NC(=O)[C@H](CCCNC(=N)N)NC(=O)[C@H](CCC(N)=O)NC(=O)[C@H](Cc1c[nH]cn1)NC(=O)[C@H](CCC(=O)O)NC(=O)[C@@H]1CCCN1C(=O)[C@H](CO)NC(=O)[C@H](CC(C)C)NC(=O)[C@H](Cc1ccccc1)NC(=O)[C@H](COCCCCCCCC)NC(=O)[C@H](CO)NC(=O)[C@@H]1CCCN1)C(C)C)C(=O)N[C@@H](CCCCN)C(=O)N1CCC[C@H]1C(=O)N1CCC[C@H]1C(=O)N[C@@H](C)C(=O)N[C@@H](CCCCN)C(=O)N[C@@H](CC(C)C)C(=O)N[C@@H](CCC(N)=O)C(=O)N1CCC[C@H]1C(=O)N[C@@H](CCCNC(=N)N)C(=O)O [Compound 16]
Accumulated FI at 6h [1]: 0.65 ± 0.1 g

Molecule: CCCCCCCC(=O)NC[C@H](NC(=O)[C@H](CO)NC(=O)[C@@H]1CCCN1)C(=O)N[C@@H](Cc1ccccc1)C(=O)N[C@@H](CC(C)C)C(=O)N[C@@H](CO)C(=O)N1CCC[C@H]1C(=O)N[C@@H](CCC(=O)O)C(=O)N[C@@H](Cc1c[nH]cn1)C(=O)N[C@@H](CCC(N)=O)C(=O)N[C@@H](CCCNC(=N)N)C(=O)N[C@H](C(=O)N[C@@H](CCC(N)=O)C(=O)N[C@@H](CCC(N)=O)C(=O)N[C@@H](CCCNC(=N)N)C(=O)N[C@@H](CCCCN)C(=O)N[C@@H](CCC(=O)O)C(=O)N[C@@H](CO)C(=O)N[C@@H](CCCCN)C(=O)N[C@@H](CCCCN)C(=O)N1CCC[C@H]1C(=O)N1CCC[C@H]1C(=O)N[C@@H](C)C(=O)N[C@@H](CCCCN)C(=O)N[C@@H](CC(C)C)C(=O)N[C@@H](CCC(N)=O)C(=O)N1CCC[C@H]1C(=O)N[C@@H](CCCNC(=N)N)C(N)=O)C(C)C [Compound 22]
Accumulated FI at 6h [1]: 1.87 ± 0.23 g
Effects on FI during the dark period ([1]; 300 nmol/kg s.c.): significant effects

Molecule: CCCCCCCC(=O)NC[C@H](NC(=O)[C@H](CO)NC(=O)[C@@H]1CCCN1)C(=O)N[C@@H](Cc1ccccc1)C(=O)N[C@@H](CC(C)C)C(=O)N[C@@H](CO)C(=O)N1CCC[C@H]1C(=O)N[C@@H](CCC(=O)O)C(=O)N[C@@H](Cc1c[nH]cn1)C(=O)N[C@@H](CO)C(=O)N[C@@H](CCCNC(=N)N)C(=O)N[C@H](C(=O)N[C@@H](CO)C(=O)N[C@@H](CO)C(=O)N[C@@H](CCCNC(=N)N)C(=O)N[C@@H](CCCCN)C(=O)N[C@@H](CCC(=O)O)C(=O)N[C@@H](CO)C(=O)N[C@@H](CCCCN)C(=O)N[C@@H](CCCCN)C(=O)N1CCC[C@H]1C(=O)N1CCC[C@H]1C(=O)N[C@@H](C)C(=O)N[C@@H](CCCCN)C(=O)N[C@@H](CC(C)C)C(=O)N[C@@H](CO)C(=O)N1CCC[C@H]1C(=O)N[C@@H](CCCNC(=N)N)C(N)=O)C(C)C [Compound 23] (H-PS[Dap](Octanoyl)FLSPEHSRVSSRKESKKPPAKLSPR-NH2)
Effects on FI in the 0-6 h light period ([1]; 300 nmol/kg s.c., modified protocol (FIG. 2A)): moderate effects
Effects on FI during the dark period ([1]; 300 nmol/kg s.c.): significant effects

Molecule: CCCCCCCC(=O)NC[C@H](NC(=O)[C@H](CO)NC(=O)[C@@H]1CCCN1)C(=O)N[C@@H](Cc1ccccc1)C(=O)N[C@@H](CC(C)C)C(=O)N[C@@H](CO)C(=O)N1CCC[C@H]1C(=O)N[C@@H](Cc1ccc(O)cc1)C(N)=O [Compound 42, H-PS-Dap(N-octanoyl)-FLSPY-NH2] (H-PS[Dap](Octanoyl)FLSPY-NH2)
Accumulated FI at 6h [1]: 0.2 ± 0.08 g

Molecule: CCCCCCCCCCCCCCCC(=O)N[C@@H](CCC(=O)NCCCC[C@H](NC(=O)[C@H](CO)NC(=O)[C@H](CCC(=O)O)NC(=O)[C@H](CCCCN)NC(=O)[C@H](CCCNC(=N)N)NC(=O)[C@H](CCC(N)=O)NC(=O)[C@H](CCC(N)=O)NC(=O)[C@@H](NC(=O)[C@H](CCCNC(=N)N)NC(=O)[C@H](CCC(N)=O)NC(=O)[C@H](Cc1c[nH]cn1)NC(=O)[C@H](CCC(=O)O)NC(=O)[C@@H]1CCCN1C(=O)[C@H](CO)NC(=O)[C@H](CC(C)C)NC(=O)[C@H](Cc1ccccc1)NC(=O)[C@H](COCCCCCCCC)NC(=O)[C@H](CO)NC(=O)[C@@H]1CCCN1)C(C)C)C(=O)N[C@@H](CCCCN)C(=O)N1CCC[C@H]1C(=O)N1CCC[C@H]1C(=O)N[C@@H](C)C(=O)N[C@@H](CCCCN)C(=O)N[C@@H](CC(C)C)C(=O)N[C@@H](CCC(N)=O)C(=O)N1CCC[C@H]1C(=O)N[C@@H](CCCNC(=N)N)C(N)=O)C(=O)O [Compound 43]
Accumulated FI at 6h [1]: 0.37 ± 0.14 g

Molecule: CCCCCCCCOC[C@H](NC(=O)[C@H](CO)NC(=O)[C@@H]1CCCN1)C(=O)N[C@@H](Cc1ccccc1)C(=O)N[C@@H](CC(C)C)C(=O)N[C@@H](CO)C(=O)N1CCC[C@H]1C(=O)N[C@@H](CCC(=O)O)C(=O)N[C@@H](Cc1c[nH]cn1)C(=O)N[C@@H](CO)C(=O)N[C@@H](CCCNC(=N)N)C(=O)N[C@H](C(=O)N[C@@H](CO)C(=O)N[C@@H](CO)C(=O)N[C@@H](CCCNC(=N)N)C(=O)N[C@@H](CCCCN)C(=O)N[C@@H](CCC(=O)O)C(=O)N[C@@H](CO)C(=O)N[C@@H](CO)C(=O)N[C@@H](CCCCN)C(=O)N1CCC[C@H]1C(=O)N1CCC[C@H]1C(=O)N[C@@H](C)C(=O)N[C@@H](CCCCN)C(=O)N[C@@H](CC(C)C)C(=O)N[C@@H](CO)C(=O)N1CCC[C@H]1C(=O)N[C@@H](CCCNC(=N)N)C(N)=O)C(C)C [Compound 45] (H-PSS(Octyl)FLSPEHSRVSSRKESSKPPAKLSPR-NH2)
Accumulated FI at 6h [1]: 0.38 ± 0.13 g

Molecule: CCCCCCCCOC[C@H](NC(=O)[C@H](CO)NC(=O)[C@@H]1CCCN1)C(=O)N[C@@H](Cc1ccccc1)C(=O)N[C@@H](CC(C)C)C(=O)N[C@@H](CO)C(=O)N1CCC[C@H]1C(=O)N[C@@H](CCC(=O)O)C(=O)N[C@@H](Cc1c[nH]cn1)C(=O)N[C@@H](CO)C(=O)N[C@@H](CCCNC(=N)N)C(=O)N[C@H](C(=O)N[C@@H](CO)C(=O)N[C@@H](CO)C(=O)N[C@@H](CCCNC(=N)N)C(=O)N[C@@H](CCCCN)C(=O)N[C@@H](CCC(=O)O)C(=O)N[C@@H](CO)C(=O)N[C@@H](CCCCN)C(=O)N[C@@H](CO)C(=O)N1CCC[C@H]1C(=O)N1CCC[C@H]1C(=O)N[C@@H](C)C(=O)N[C@@H](CCCCN)C(=O)N[C@@H](CC(C)C)C(=O)N[C@@H](CO)C(=O)N1CCC[C@H]1C(=O)N[C@@H](CCCNC(=N)N)C(N)=O)C(C)C [Compound 46] (H-PSS(Octyl)FLSPEHSRVSSRKESKSPPAKLSPR-NH2)
Accumulated FI at 6h [1]: 1.68 ± 0.2 g

EC50 (nM); Ca2+ induction in HEK293 cells stably expressing the human ghrelin receptor [2]: 0.558 nM
B1: H-Cmp-S(O-octanoyl)-FLSPEHQRVQQRKESKKPPAKLQPR-OH (peptide)
peptide: H-[Cmp]S(Octanoyl)FLSPEHQRVQQRKESKKPPAKLQPR-OH
SMILES: CCCCCCCC(=O)OC[C@H](NC(=O)CC1CCNCC1)C(=O)N[C@@H](Cc1ccccc1)C(=O)N[C@@H](CC(C)C)C(=O)N[C@@H](CO)C(=O)N1CCC[C@H]1C(=O)N[C@@H](CCC(=O)O)C(=O)N[C@@H](Cc1c[nH]cn1)C(=O)N[C@@H](CCC(N)=O)C(=O)N[C@@H](CCCNC(=N)N)C(=O)N[C@H](C(=O)N[C@@H](CCC(N)=O)C(=O)N[C@@H](CCC(N)=O)C(=O)N[C@@H](CCCNC(=N)N)C(=O)N[C@@H](CCCCN)C(=O)N[C@@H](CCC(=O)O)C(=O)N[C@@H](CO)C(=O)N[C@@H](CCCCN)C(=O)N[C@@H](CCCCN)C(=O)N1CCC[C@H]1C(=O)N1CCC[C@H]1C(=O)N[C@@H](C)C(=O)N[C@@H](CCCCN)C(=O)N[C@@H](CC(C)C)C(=O)N[C@@H](CCC(N)=O)C(=O)N1CCC[C@H]1C(=O)N[C@@H](CCCNC(=N)N)C(=O)O)C(C)C

EC50 (nM); Ca2+ induction in HEK293 cells stably expressing the human ghrelin receptor [2]: 0.385 nM
B2: H-SS-S(O-octanoyl)-FLSPEHQRVQQRKESKKPPAKLQPR-OH (peptide)
peptide: H-SSS(Octanoyl)FLSPEHQRVQQRKESKKPPAKLQPR-OH
SMILES: CCCCCCCC(=O)OC[C@H](NC(=O)[C@H](CO)NC(=O)[C@@H](N)CO)C(=O)N[C@@H](Cc1ccccc1)C(=O)N[C@@H](CC(C)C)C(=O)N[C@@H](CO)C(=O)N1CCC[C@H]1C(=O)N[C@@H](CCC(=O)O)C(=O)N[C@@H](Cc1c[nH]cn1)C(=O)N[C@@H](CCC(N)=O)C(=O)N[C@@H](CCCNC(=N)N)C(=O)N[C@H](C(=O)N[C@@H](CCC(N)=O)C(=O)N[C@@H](CCC(N)=O)C(=O)N[C@@H](CCCNC(=N)N)C(=O)N[C@@H](CCCCN)C(=O)N[C@@H](CCC(=O)O)C(=O)N[C@@H](CO)C(=O)N[C@@H](CCCCN)C(=O)N[C@@H](CCCCN)C(=O)N1CCC[C@H]1C(=O)N1CCC[C@H]1C(=O)N[C@@H](C)C(=O)N[C@@H](CCCCN)C(=O)N[C@@H](CC(C)C)C(=O)N[C@@H](CCC(N)=O)C(=O)N1CCC[C@H]1C(=O)N[C@@H](CCCNC(=N)N)C(=O)O)C(C)C

Reference: patent US9657062B2, “Ghrelin analogues” (Zealand Pharma A/S, priority 2012, dated 2017)
